Assay results from article PMC9005681, “Use of AD Informer Set compounds to explore validity of novel targets in Alzheimer's disease pathology” (Alzheimer's & Dementia : Translational Research & Clinical …, 2022).
Where “and” joins values, the source holds several entries; their conditions need not be identical. Identical values can stand only once.

How the values were obtained:
Test in all cases: PDSP GPCR panel primary binding assays at 10 μM
Settings in all cases: primary assay
[1] = molecular target: T1, cloned human or rodent CNS receptors, channels, and transporters (PDSP panel) (Homo sapiens, UniProt P28566)
T1 construct: expressed in transfected cells
T1 sequence (P28566 whole entry): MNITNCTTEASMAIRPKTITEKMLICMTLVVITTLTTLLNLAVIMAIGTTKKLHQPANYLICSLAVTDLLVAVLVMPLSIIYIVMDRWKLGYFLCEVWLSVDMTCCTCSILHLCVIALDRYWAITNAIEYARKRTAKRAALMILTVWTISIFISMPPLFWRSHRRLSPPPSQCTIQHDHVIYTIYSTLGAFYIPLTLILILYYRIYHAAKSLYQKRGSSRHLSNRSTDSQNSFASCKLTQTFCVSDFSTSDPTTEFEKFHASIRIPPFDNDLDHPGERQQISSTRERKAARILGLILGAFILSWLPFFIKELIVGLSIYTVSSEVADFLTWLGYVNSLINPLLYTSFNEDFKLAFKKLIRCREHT
How it was run: (§1)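 Competition binding with radiolabeled standard ligands, single 10 μM concentration, four replicates. Targets showing over 50% displacement were followed up with 11-point titrations in triplicate.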

[2] = molecular target: T2, cloned human or rodent CNS receptors, channels, and transporters (PDSP panel) (Homo sapiens, UniProt P35462)
T2 construct: expressed in transfected cells
T2 sequence (P35462 whole entry): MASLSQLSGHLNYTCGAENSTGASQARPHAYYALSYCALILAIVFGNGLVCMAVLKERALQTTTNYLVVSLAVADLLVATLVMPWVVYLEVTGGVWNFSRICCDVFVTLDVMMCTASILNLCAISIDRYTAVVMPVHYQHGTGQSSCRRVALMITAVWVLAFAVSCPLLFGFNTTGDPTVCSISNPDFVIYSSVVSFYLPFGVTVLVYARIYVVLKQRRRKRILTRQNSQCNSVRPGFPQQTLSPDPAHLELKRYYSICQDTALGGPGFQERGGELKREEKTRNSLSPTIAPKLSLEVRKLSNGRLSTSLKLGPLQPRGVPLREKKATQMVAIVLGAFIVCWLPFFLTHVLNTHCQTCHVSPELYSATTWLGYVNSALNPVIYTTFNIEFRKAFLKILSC
How it was run: as §1

[3] = molecular target: T3, cloned human or rodent CNS receptors, channels, and transporters (PDSP panel) (Homo sapiens, UniProt Q01959)
T3 construct: expressed in transfected cells
T3 sequence (Q01959 whole entry): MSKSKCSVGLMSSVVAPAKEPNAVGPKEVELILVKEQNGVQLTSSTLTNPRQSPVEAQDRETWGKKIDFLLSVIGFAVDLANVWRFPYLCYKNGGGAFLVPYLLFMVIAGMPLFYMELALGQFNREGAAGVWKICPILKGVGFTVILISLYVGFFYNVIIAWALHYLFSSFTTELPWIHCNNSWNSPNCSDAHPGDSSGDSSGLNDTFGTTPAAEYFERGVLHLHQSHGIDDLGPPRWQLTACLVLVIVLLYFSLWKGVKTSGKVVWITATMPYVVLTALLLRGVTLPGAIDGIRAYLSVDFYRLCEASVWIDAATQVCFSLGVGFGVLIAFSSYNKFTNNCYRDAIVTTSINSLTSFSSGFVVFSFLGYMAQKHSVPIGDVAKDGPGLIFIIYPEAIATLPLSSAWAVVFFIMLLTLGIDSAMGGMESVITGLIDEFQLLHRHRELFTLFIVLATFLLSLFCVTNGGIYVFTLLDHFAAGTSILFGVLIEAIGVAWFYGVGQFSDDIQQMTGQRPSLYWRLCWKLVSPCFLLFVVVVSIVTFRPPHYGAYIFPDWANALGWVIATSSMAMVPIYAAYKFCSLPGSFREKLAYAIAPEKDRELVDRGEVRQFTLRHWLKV
How it was run: as §1

[4] = molecular target: T4, cloned human or rodent CNS receptors, channels, and transporters (PDSP panel) (Homo sapiens, UniProt P28221)
T4 construct: expressed in transfected cells
T4 sequence (P28221 whole entry): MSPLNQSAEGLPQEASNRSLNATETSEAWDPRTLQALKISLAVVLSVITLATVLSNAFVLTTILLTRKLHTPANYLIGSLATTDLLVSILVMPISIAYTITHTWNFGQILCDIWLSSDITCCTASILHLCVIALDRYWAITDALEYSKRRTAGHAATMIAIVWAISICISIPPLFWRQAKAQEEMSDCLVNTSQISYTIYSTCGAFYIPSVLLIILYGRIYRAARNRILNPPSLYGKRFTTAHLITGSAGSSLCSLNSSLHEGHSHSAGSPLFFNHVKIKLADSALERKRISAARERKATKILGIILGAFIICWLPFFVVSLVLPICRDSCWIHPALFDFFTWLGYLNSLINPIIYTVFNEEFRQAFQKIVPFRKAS
How it was run: as §1

[5] = molecular target: T5, cloned human or rodent CNS receptors, channels, and transporters (PDSP panel) (Homo sapiens, UniProt P28335)
T5 construct: expressed in transfected cells
T5 sequence (P28335 33-458): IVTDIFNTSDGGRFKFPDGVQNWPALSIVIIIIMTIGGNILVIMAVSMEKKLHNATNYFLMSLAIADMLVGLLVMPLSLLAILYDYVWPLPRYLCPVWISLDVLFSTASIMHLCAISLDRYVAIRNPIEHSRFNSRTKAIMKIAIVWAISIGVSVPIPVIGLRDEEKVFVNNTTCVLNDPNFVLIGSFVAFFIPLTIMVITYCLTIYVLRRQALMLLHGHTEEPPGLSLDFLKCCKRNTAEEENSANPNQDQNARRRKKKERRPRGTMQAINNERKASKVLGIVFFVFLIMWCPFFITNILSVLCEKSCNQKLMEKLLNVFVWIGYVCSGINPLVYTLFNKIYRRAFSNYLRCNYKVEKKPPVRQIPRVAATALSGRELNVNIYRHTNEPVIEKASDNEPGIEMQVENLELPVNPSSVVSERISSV
How it was run: as §1

[6] = molecular target: T6, cloned human or rodent CNS receptors, channels, and transporters (PDSP panel) (Homo sapiens, UniProt P35367)
T6 construct: expressed in transfected cells
T6 sequence (P35367 whole entry): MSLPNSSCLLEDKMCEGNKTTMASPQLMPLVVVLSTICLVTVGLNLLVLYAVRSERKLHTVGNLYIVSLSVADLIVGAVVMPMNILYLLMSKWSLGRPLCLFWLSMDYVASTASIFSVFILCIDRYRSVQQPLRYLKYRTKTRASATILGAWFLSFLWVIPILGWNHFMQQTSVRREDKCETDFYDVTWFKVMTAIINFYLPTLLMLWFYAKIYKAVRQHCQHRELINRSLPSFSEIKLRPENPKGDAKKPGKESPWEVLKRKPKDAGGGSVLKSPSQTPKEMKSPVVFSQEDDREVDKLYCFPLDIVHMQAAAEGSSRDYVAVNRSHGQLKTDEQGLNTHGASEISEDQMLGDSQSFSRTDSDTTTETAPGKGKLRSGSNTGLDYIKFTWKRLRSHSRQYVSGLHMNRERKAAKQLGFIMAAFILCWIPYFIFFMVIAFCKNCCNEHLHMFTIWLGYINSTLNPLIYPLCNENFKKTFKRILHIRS
How it was run: as §1

[7] = molecular target: T7, cloned human or rodent CNS receptors, channels, and transporters (PDSP panel) (Homo sapiens, UniProt P34969)
T7 construct: expressed in transfected cells
T7 sequence (P34969 whole entry): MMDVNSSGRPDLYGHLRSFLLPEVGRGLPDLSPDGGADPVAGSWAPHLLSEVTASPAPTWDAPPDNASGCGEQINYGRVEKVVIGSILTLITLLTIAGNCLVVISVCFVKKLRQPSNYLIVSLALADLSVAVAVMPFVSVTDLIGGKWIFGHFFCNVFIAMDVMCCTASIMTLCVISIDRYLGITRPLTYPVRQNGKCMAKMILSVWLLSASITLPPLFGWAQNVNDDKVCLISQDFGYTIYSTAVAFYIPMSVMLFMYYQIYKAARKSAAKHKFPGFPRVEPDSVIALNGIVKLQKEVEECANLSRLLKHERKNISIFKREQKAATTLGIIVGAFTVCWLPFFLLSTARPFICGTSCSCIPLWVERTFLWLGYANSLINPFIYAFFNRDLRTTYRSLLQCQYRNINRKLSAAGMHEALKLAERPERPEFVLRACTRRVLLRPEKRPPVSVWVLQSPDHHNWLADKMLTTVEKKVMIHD
How it was run: as §1

[8] = molecular target: T8, cloned human or rodent CNS receptors, channels, and transporters (PDSP panel) (Homo sapiens, UniProt P14416)
T8 construct: expressed in transfected cells
T8 sequence (P14416 whole entry): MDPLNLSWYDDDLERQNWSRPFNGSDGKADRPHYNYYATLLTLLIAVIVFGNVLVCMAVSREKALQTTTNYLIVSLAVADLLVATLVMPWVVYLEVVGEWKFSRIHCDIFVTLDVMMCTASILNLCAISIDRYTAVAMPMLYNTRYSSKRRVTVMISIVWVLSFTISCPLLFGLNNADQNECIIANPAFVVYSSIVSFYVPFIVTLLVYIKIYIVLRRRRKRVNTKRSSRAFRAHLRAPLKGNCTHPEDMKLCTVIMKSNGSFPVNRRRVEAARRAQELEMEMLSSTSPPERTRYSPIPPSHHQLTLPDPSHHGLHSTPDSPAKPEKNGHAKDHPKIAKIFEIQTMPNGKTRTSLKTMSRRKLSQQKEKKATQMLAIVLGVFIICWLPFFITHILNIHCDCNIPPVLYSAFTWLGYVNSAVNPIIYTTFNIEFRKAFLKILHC
How it was run: as §1

[9] = molecular target: T9, cloned human or rodent CNS receptors, channels, and transporters (PDSP panel) (Rattus norvegicus, UniProt P16257)
T9 construct: expressed in transfected cells
How it was run: as §1

[10] = molecular target: T10, cloned human or rodent CNS receptors, channels, and transporters (PDSP panel) (Homo sapiens, UniProt P28222)
T10 construct: expressed in transfected cells
T10 sequence (P28222 whole entry): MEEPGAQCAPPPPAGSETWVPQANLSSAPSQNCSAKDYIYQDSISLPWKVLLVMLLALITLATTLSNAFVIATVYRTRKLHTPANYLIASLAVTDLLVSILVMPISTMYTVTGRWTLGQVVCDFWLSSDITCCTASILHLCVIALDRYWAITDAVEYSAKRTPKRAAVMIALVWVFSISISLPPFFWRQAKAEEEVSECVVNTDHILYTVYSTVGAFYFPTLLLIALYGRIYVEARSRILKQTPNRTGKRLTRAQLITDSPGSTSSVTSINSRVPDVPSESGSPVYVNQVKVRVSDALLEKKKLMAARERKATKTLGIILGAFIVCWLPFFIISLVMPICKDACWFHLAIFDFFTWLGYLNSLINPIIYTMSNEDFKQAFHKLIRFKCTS
How it was run: as §1

[11] = molecular target: T11, cloned human or rodent CNS receptors, channels, and transporters (PDSP panel) (Homo sapiens, UniProt P31645)
T11 construct: expressed in transfected cells
T11 sequence (P31645 whole entry): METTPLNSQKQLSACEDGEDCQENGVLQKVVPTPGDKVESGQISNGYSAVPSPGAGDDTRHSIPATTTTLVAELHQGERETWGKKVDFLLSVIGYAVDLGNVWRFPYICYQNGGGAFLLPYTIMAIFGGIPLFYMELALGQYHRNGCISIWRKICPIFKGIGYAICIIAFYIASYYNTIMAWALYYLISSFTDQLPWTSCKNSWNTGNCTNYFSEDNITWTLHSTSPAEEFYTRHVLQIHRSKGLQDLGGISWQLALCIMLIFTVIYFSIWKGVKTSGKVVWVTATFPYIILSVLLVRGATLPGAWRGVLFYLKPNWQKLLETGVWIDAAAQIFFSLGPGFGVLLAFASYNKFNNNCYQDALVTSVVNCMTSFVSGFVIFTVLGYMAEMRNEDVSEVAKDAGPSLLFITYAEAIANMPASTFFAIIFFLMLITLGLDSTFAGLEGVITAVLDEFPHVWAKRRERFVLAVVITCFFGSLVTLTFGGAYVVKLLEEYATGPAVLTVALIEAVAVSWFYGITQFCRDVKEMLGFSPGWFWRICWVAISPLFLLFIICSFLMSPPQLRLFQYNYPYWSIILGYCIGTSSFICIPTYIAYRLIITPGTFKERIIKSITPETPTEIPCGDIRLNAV
How it was run: as §1

[12] = molecular target: T12, cloned human or rodent CNS receptors, channels, and transporters (PDSP panel) (Homo sapiens, UniProt P18089)
T12 construct: expressed in transfected cells
T12 sequence (P18089 1-450): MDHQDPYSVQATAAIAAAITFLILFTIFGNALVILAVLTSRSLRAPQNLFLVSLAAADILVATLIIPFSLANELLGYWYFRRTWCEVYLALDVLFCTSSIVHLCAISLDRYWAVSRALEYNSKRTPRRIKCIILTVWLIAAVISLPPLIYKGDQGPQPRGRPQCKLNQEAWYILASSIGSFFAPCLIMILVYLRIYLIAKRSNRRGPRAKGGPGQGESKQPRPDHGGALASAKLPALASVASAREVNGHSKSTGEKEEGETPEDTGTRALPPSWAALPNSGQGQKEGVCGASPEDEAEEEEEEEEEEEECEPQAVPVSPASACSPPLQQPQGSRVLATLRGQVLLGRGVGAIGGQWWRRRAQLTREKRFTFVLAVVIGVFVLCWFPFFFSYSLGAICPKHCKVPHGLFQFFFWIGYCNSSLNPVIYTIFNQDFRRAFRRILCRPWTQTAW
How it was run: as §1

CCC(=O)N1CCC(NC(=O)Nc2ccc(OC(F)(F)F)cc2)CC1 [UNC10302681A, TPPU]
Mean % ([1]; 5-HT1E, mean inhibition): -4.36%
Inhibition 1 ([1]; 5-HT1E, replicate 1): 0.45%
Inhibition 2 ([1]; 5-HT1E, replicate 2): -10.14%
Inhibition 3 ([1]; 5-HT1E, replicate 3): -9.09%
Inhibition 4 ([1]; 5-HT1E, replicate 4): 1.34%
Mean % ([2]; D3, mean inhibition): -4.85%
Inhibition 1 ([2]; D3, replicate 1): -1.18%
Inhibition 2 ([2]; D3, replicate 2): -5.62%
Inhibition 3 ([2]; D3, replicate 3): -5.04%
Inhibition 4 ([2]; D3, replicate 4): -7.54%
Mean % ([3]; DAT, mean inhibition): 59.91%
Inhibition 1 ([3]; DAT, replicate 1): 71.52%
Inhibition 2 ([3]; DAT, replicate 2): 71.2%
Inhibition 3 ([3]; DAT, replicate 3): 51.64%
Inhibition 4 ([3]; DAT, replicate 4): 45.27%
Mean % ([4]; 5-HT1D, mean inhibition): 0.73%
Inhibition 1 ([4]; 5-HT1D, replicate 1): 17.8%
Inhibition 2 ([4]; 5-HT1D, replicate 2): -3.44%
Inhibition 3 ([4]; 5-HT1D, replicate 3): -7.6%
Inhibition 4 ([4]; 5-HT1D, replicate 4): -3.85%
Mean % ([5]; 5-HT2C, mean inhibition): -8.1%
Inhibition 1 ([5]; 5-HT2C, replicate 1): 3.44%
Inhibition 2 ([5]; 5-HT2C, replicate 2): -10.8%
Inhibition 3 ([5]; 5-HT2C, replicate 3): -1.96%
Inhibition 4 ([5]; 5-HT2C, replicate 4): -23.07%
Mean % ([6]; H1, mean inhibition): 74.57%
Inhibition 1 ([6]; H1, replicate 1): 97.51%
Inhibition 2 ([6]; H1, replicate 2): 87.07%
Inhibition 3 ([6]; H1, replicate 3): 65.55%
Inhibition 4 ([6]; H1, replicate 4): 48.14%
Mean % ([7]; 5-HT7A, mean inhibition): 28.67%
Inhibition 1 ([7]; 5-HT7A, replicate 1): 34.17%
Inhibition 2 ([7]; 5-HT7A, replicate 2): 16.81%
Inhibition 3 ([7]; 5-HT7A, replicate 3): 23.63%
Inhibition 4 ([7]; 5-HT7A, replicate 4): 40.05%
Mean % ([8]; D2, mean inhibition): -2.08%
Inhibition 1 ([8]; D2, replicate 1): 8.4%
Inhibition 2 ([8]; D2, replicate 2): -12.22%
Inhibition 3 ([8]; D2, replicate 3): -3.46%
Inhibition 4 ([8]; D2, replicate 4): -1.03%
Mean % ([9]; PBR, mean inhibition): 4.31% and 5.42%
Inhibition 1 ([9]; PBR, replicate 1): 20.73% and 18.86%
Inhibition 2 ([9]; PBR, replicate 2): -4.07% and -6.82%
Inhibition 3 ([9]; PBR, replicate 3): -2.57% and 2.75%
Inhibition 4 ([9]; PBR, replicate 4): 3.14% and 6.9%
Mean % ([10]; 5-HT1B, mean inhibition): -0.64%
Inhibition 1 ([10]; 5-HT1B, replicate 1): 7.08%
Inhibition 2 ([10]; 5-HT1B, replicate 2): 0.59%
Inhibition 3 ([10]; 5-HT1B, replicate 3): -3.14%
Inhibition 4 ([10]; 5-HT1B, replicate 4): -7.08%
Inhibition 1 ([11]; SERT, replicate 1): 16.43% and 21.37%
Inhibition 2 ([11]; SERT, replicate 2): -9.69% and 21.48%
Inhibition 3 ([11]; SERT, replicate 3): 7.05% and 21.19%
Inhibition 4 ([11]; SERT, replicate 4): 4.97% and 21.78%
Mean % ([12]; Alpha2B, mean inhibition): 6.32%
Inhibition 1 ([12]; Alpha2B, replicate 1): 1.27%
Inhibition 2 ([12]; Alpha2B, replicate 2): 8.98%
Inhibition 3 ([12]; Alpha2B, replicate 3): 5.54%
Inhibition 4 ([12]; Alpha2B, replicate 4): 9.47%

Cl.NC(=O)c1cnc(N[C@@H]2CCCC[C@@H]2N)nc1Nc1cccc(-n2nccn2)c1 [UNC10302682A, P505-15 (PRT06207 HCl)]
Inhibition 1 ([1]; Receptor 5-HT1E, 10 μM): -23.96%
Inhibition 2 ([1]; Receptor 5-HT1E, 10 μM): -26.62%
Inhibition 3 ([1]; Receptor 5-HT1E, 10 μM): 0%
Inhibition 4 ([1]; Receptor 5-HT1E, 10 μM): -50.26%
Mean % ([1]; Receptor 5-HT1E, 10 μM, mean of Inhibition 1-4): -25.21%
Inhibition 1 ([2]; Receptor D3, 10 μM): 15.21%
Inhibition 2 ([2]; Receptor D3, 10 μM): 7.11%
Inhibition 3 ([2]; Receptor D3, 10 μM): 21.57%
Inhibition 4 ([2]; Receptor D3, 10 μM): 8.07%
Mean % ([2]; Receptor D3, 10 μM, mean of Inhibition 1-4): 12.99%
Inhibition 1 ([3]; Receptor DAT, 10 μM): 65.15%
Inhibition 2 ([3]; Receptor DAT, 10 μM): 70.33%
Inhibition 3 ([3]; Receptor DAT, 10 μM): 66.98%
Inhibition 4 ([3]; Receptor DAT, 10 μM): 72.6%
Mean % ([3]; Receptor DAT, 10 μM, mean of Inhibition 1-4): 68.77%
Inhibition 1 ([4]; Receptor 5-HT1D, 10 μM): 74.44%
Inhibition 2 ([4]; Receptor 5-HT1D, 10 μM): 57.78%
Inhibition 3 ([4]; Receptor 5-HT1D, 10 μM): 54.87%
Inhibition 4 ([4]; Receptor 5-HT1D, 10 μM): 71.94%
Mean % ([4]; Receptor 5-HT1D, 10 μM, mean of Inhibition 1-4): 64.76%
Inhibition 1 ([5]; Receptor 5-HT2C, 10 μM): 78.04%
Inhibition 2 ([5]; Receptor 5-HT2C, 10 μM): 64.79%
Inhibition 3 ([5]; Receptor 5-HT2C, 10 μM): 67.73%
Inhibition 4 ([5]; Receptor 5-HT2C, 10 μM): 44.66%
Mean % ([5]; Receptor 5-HT2C, 10 μM, mean of Inhibition 1-4): 63.81%
Inhibition 1 ([6]; Receptor H1, 10 μM): 100.99%
Inhibition 2 ([6]; Receptor H1, 10 μM): 95.9%
Inhibition 3 ([6]; Receptor H1, 10 μM): 86.08%
Inhibition 4 ([6]; Receptor H1, 10 μM): 60.28%
Mean % ([6]; Receptor H1, 10 μM, mean of Inhibition 1-4): 85.81%
Inhibition 1 ([7]; Receptor 5-HT7A, 10 μM): 33.86%
Inhibition 2 ([7]; Receptor 5-HT7A, 10 μM): 20.22%
Inhibition 3 ([7]; Receptor 5-HT7A, 10 μM): 54.31%
Inhibition 4 ([7]; Receptor 5-HT7A, 10 μM): 52.91%
Mean % ([7]; Receptor 5-HT7A, 10 μM, mean of Inhibition 1-4): 40.33%
Inhibition 1 ([8]; Receptor D2, 10 μM): 17.73%
Inhibition 2 ([8]; Receptor D2, 10 μM): -4.34%
Inhibition 3 ([8]; Receptor D2, 10 μM): 3.54%
Inhibition 4 ([8]; Receptor D2, 10 μM): 5.97%
Mean % ([8]; Receptor D2, 10 μM, mean of Inhibition 1-4): 5.73%
Inhibition 1 ([9]; Receptor PBR, 10 μM): 32.16% and 27.63%
Inhibition 2 ([9]; Receptor PBR, 10 μM): 2.97% and 6.1%
Inhibition 4 ([9]; Receptor PBR, 10 μM): 18.35% and 12.24%
Mean % ([9]; Receptor PBR, 10 μM, mean of Inhibition 1-4): 14.68% and 16.23%
Inhibition 1 ([10]; Receptor 5-HT1B, 10 μM): 53.66%
Inhibition 2 ([10]; Receptor 5-HT1B, 10 μM): 22.41%
Inhibition 3 ([10]; Receptor 5-HT1B, 10 μM): 27.71%
Inhibition 4 ([10]; Receptor 5-HT1B, 10 μM): 32.24%
Mean % ([10]; Receptor 5-HT1B, 10 μM, mean of Inhibition 1-4): 34.01%
Inhibition 2 ([11]; Receptor SERT, 10 μM): 8.4% and 8.39%
Inhibition 3 ([11]; Receptor SERT, 10 μM): 11.88% and 10.26%
Inhibition 4 ([11]; Receptor SERT, 10 μM): 20.53% and 20.37%
Mean % ([11]; Receptor SERT, 10 μM, mean of Inhibition 1-4): 14.96% and 10.68%
Inhibition 1 ([12]; Receptor Alpha2B, 10 μM): 4.86%
Inhibition 2 ([12]; Receptor Alpha2B, 10 μM): 6.29%
Inhibition 3 ([12]; Receptor Alpha2B, 10 μM): -7.3%
Inhibition 4 ([12]; Receptor Alpha2B, 10 μM): -0.22%
Mean % ([12]; Receptor Alpha2B, 10 μM, mean of Inhibition 1-4): 0.91%
